Tests used:
[1] = compound: C1=CC(=CC(=C1)N2C(=O)C=CC3=CN=C4C=CC(=CC4=C32)C5=CN=C(C=C5)N)C(F)(F)F [Torin2]
[2] = compound: C1=CC2=C(C=CC(=C2)C=C3C(=O)NC(=NCC4=CC=CS4)S3)N=C1 [R0-3306]
[3] = compound: C=CCn1c(=O)c2cnc(Nc3ccc(N4CCN(C)CC4)cc3)nc2n1-c1cccc(C(C)(C)O)n1 [AZD1775]
[4] = compound: CC(=O)Nc1cccc(-n2c(=O)n(C3CC3)c(=O)c3c(Nc4ccc(I)cc4F)n(C)c(=O)c(C)c32)c1
[5] = compound: CC(=O)c1c(C)c2cnc(Nc3ccc(N4CCNCC4)cn3)nc2n(C2CCCC2)c1=O
[6] = compound: CC(C)NC[C@@H](C(=O)N1CCN(c2ncnc3c2[C@H](C)C[C@H]3O)CC1)c1ccc(Cl)cc1 [Ipatasertib/GDC0068]
[7] = compound: CC(C)Nc1cc(-c2c[nH]c(C(=O)N[C@H](CO)c3cccc(Cl)c3)c2)c(Cl)cn1 [BVD523]
[8] = compound: CC1(CCN(CC1)C2=CN=C(C(=N2)N)C3=C(C(=CC=C3)Cl)Cl)N [SHP099]
[9] = compound: CC1=CN2C(=O)C=C(N=C2C(=C1)C(C)NC3=CC=CC=C3)N4CCOCC4 [TGX221]
[10] = compound: CCC1=CN=CN=C1N2CCN(CC2)CC3=NC4=C(N3)C=C(C=C4)C(F)(F)F
[11] = compound: CCCCOc1c(C(=O)c2c(F)cc(C)cc2F)c[nH]c2nncc1-2
[12] = compound: CCNC(=O)c1noc(-c2cc(C(C)C)c(O)cc2O)c1-c1ccc(CN2CCOCC2)cc1 [Luminespib/NVP-AUY922]
[13] = compound: CCc1cnn2c(NCc3ccc[n+]([O-])c3)cc(N3CCCC[C@H]3CCO)nc12
[14] = compound: CN(C)C/C=C/C(=O)NC1=CC=C(C=C1)C(=O)NC2=CC=CC(=C2)NC3=NC=NC(=C3)C4=CNC5=CC=CC=C54 [THZ-P1-2]
[15] = compound: CN(C)C/C=C/C(=O)Nc1ccc(C(=O)Nc2cccc(Nc3ncc(Cl)c(-c4c[nH]c5ccccc45)n3)c2)cc1 [THZ1]
[16] = compound: CN(C)C/C=C/C(=O)Nc1ccc(O[C@@H]2CCC[C@@H](Nc3ncc(Cl)c(-c4c[nH]c5ccccc45)n3)C2)cc1 [BSJ-01-175]
[17] = compound: CN1CCN(C(=O)c2ccc3cc(CCNc4ncnc5ccc(C#N)cc45)ccc3c2)CC1 [senexin b]
[18] = compound: CN1CCN(CCOc2cc(OC3CCOCC3)c3c(Nc4c(Cl)ccc5c4OCO5)ncnc3c2)CC1 [Saracatinib/AZD0530]
[19] = compound: CN1CC[C@H](c2c(O)cc(O)c3c(=O)cc(-c4ccccc4Cl)oc23)[C@H](O)C1 [Flavopiridol]
[20] = compound: CNC(=O)c1cccc(-c2ccc3c(N4CCOC[C@@H]4C)nc(N4CCOC[C@@H]4C)nc3n2)c1 [AZD2014]
[21] = compound: CNCc1ccc(-c2[nH]c3cc(F)cc4c3c2CCNC4=O)cc1 [Rucaparib]
[22] = compound: CNc1nc(-c2ccc3c(N)n[nH]c3c2)cc(N2C[C@@H](C(=O)NC3CCCCC3)CC[C@H]2C)n1
[23] = compound: CO[C@@H](C)Cn1c(=O)n(C)c2cnc3ccc(-c4cncc(C(C)(C)O)c4)cc3c21
[24] = compound: COc1cc2c(Oc3ccc4[nH]c(C)cc4c3F)ncnc2cc1OCCCN1CCCC1 [Cediranib/AZD2171]
[25] = compound: COc1cc2nccc(Oc3ccc(NC(=O)C4(C(=O)Nc5ccc(F)cc5)CC4)cc3)c2cc1OC [Cabozantinib]
[26] = compound: COc1cccc2c1C(=O)c1c(O)c3c(c(O)c1C2=O)C[C@@](O)(C(=O)CO)C[C@@H]3O[C@H]1C[C@H](N)[C@H](O)[C@H](C)O1 [Doxorubicin]
[27] = compound: C[C@@H]1COCCN1c1cc(C2([S@](C)(=N)=O)CC2)nc(-c2cc[nH]c3nccc2-3)n1 [AZD6738]
[28] = compound: Cc1nc(NC(=O)N2CCC[C@H]2C(N)=O)sc1-c1ccnc(C(C)(C)C(F)(F)F)c1 [Alpelisib/BYL719]
[29] = compound: Cc1nc(Nc2ncc(C(=O)Nc3c(C)cccc3Cl)s2)cc(N2CCN(CCO)CC2)n1 [Dasatinib]
[30] = compound: Cc1nn(C)c(COc2ccc(N3CCN(S(=O)(=O)N(C)C)CC3)cc2)c1-c1cccc2c(CCCOc3cccc4ccccc34)c(C(=O)O)n(CCN3CCOCC3)c12
[31] = compound: NC(=O)Nc1cc(-c2cccc(F)c2)sc1C(=O)N[C@H]1CCCNC1 [AZD7762]
[32] = compound: NC1(C(=O)N[C@@H](CCO)c2ccc(Cl)cc2)CCN(c2nc[nH]c3nccc2-3)CC1 [AZD5363]
[33] = compound: Nc1cc(C(F)(F)F)c(-c2cc(N3CCOCC3)nc(N3CCOCC3)n2)cn1 [Buparlisib/NVP-BKM120]
[34] = compound: O=C(CCCCCCC(=O)Nc1ccccc1)NO [Vorinostat]
[35] = compound: O=C(c1cc(Cc2n[nH]c(=O)c3ccccc23)ccc1F)N1CCN(C(=O)C2CC2)CC1 [Olaparib/AZD2281]
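Also: breast cancer and non-malignant breast epithelial cell lines, Deep Dye Drop or Dye Drop imaging, nine half-log doses, GR normalized to time-zero plates and DMSO-only controls.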

Cell Line | GR50, 72 h [1] [µM] | GR50, 72 h [2] [µM] | GR50, 72 h [3] [µM] | GR50, 72 h [4] [µM] | GR50, 72 h [5] [µM] | GR50, 72 h [6] [µM] | GR50, 72 h [7] [µM] | GR50, 72 h [8] [µM] | GR50, 72 h [9] [µM] | GR50, 72 h [10] [µM] | GR50, 72 h [11] [µM] | GR50, 72 h [12] [µM] | GR50, 72 h [13] [µM] | GR50, 72 h [14] [µM] | GR50, 72 h [15] [µM] | GR50, 72 h [16] [µM] | GR50, 72 h [17] [µM] | GR50, 72 h [18] [µM] | GR50, 72 h [19] [µM] | GR50, 72 h [20] [µM] | GR50, 72 h [21] [µM] | GR50, 72 h [22] [µM] | GR50, 72 h [23] [µM] | GR50, 72 h [24] [µM] | GR50, 72 h [25] [µM] | GR50, 72 h [26] [µM] | GR50, 72 h [27] [µM] | GR50, 72 h [28] [µM] | GR50, 72 h [29] [µM] | GR50, 72 h [30] [µM] | GR50, 72 h [31] [µM] | GR50, 72 h [32] [µM] | GR50, 72 h [33] [µM] | GR50, 72 h [34] [µM] | GR50, 72 h [35] [µM]
HCC1806 | 0.0358 | 5.39 | 0.0128 | > 1 | > 3.16 | > 10 | > 10 | > 10 | > 10 | > 10 | 0.278 | 0.0109 | 0.0134 | 4.69 | 0.0688 | 0.092 | > 10 | 1.73 | 0.168 | 1.82 | > 10 | > 10 | 0.347 | 4.93 | > 10 | 0.0159 | 1.1 | > 10 | 0.0537 | > 10 | 0.0166 | > 10 | 1.05 | 1.13 | > 10
HCC1395 | 0.0146 | 0.463 | 0.00604 | 0.172 | 0.0952 | 0.926 | 1.72 | > 10 | 8.42 | > 10 | 0.00575 | 0.005 | 0.0124 | 2.89 | 0.022 | 0.015 | 5.9 | 3.76 | 0.126 | 0.0101 | 0.957 | > 10 | 0.00497 | 1.59 | 5.55 | 0.0179 | 1.81 | > 10 | 0.0748 | > 10 | 0.0217 | 0.135 | 0.93 | 3.27 | 1.87
CAL51 | 0.0179 | 8.06 | 0.274 | > 1 | 0.373 | 2.98 | > 10 | > 10 | > 10 | > 10 | 3.95 | 0.00639 | 0.0147 | > 10 | 0.385 | 0.432 | > 10 | 1.85 | 0.2 | 0.163 | > 10 | > 10 | 0.0113 | 3.05 | 7.77 | 0.00858 | 5.34 | 6.1 | 0.0581 | > 10 | 0.0446 | > 10 | 0.989 | 1.83 | 7.19
HCC202 | 0.0137 | 5.71 | 0.051 | > 1 | > 3.16 | 3.36 | > 10 | > 10 | > 10 | > 10 | 0.0699 | 0.0114 | 0.0137 | 6.48 | 0.0212 | 0.0167 | > 10 | 0.475 | 0.14 | 0.00237 | > 10 | 0.842 | 0.00541 | 7.85 | > 10 | 0.0268 | 8.72 | 0.465 | 0.0186 | > 10 | 0.0585 | > 10 | 0.431 | 3.57 | > 10
MDAMB468 | 0.016 | 4.57 | 0.25 | 0.442 | > 3.16 | 2.36 | 1.64 | > 10 | > 10 | 4.17 | 0.133 | 0.00483 | 0.0156 | 3.59 | 0.0236 | 0.00931 | 2.04 | 4.96 | 0.173 | 0.523 | 8.56 | > 10 | 0.0123 | 3.92 | 8.97 | 0.00542 | > 10 | > 10 | 4.41 | > 10 | 0.287 | > 10 | 0.832 | 1.57 | 7.92
HCC38 | 0.0105 | 7.29 | 0.00378 | 0.22 | 0.0597 | > 10 | 4.75 | > 10 | > 10 | > 10 | 0.00391 | 0.00714 | 0.0126 | 4.23 | 0.0239 | 0.13 | > 10 | > 10 | 0.139 | 0.452 | > 10 | > 10 | 0.00435 | 1.59 | 7.6 | 0.00955 | 2 | > 10 | 5.69 | > 10 | 0.00948 | > 10 | 1.27 | 0.96 | 8.42
